Measurements as given in publication PMC2628638, “Catalytic inhibition of topoisomerase II by a novel rationally designed ATP-competitive purine analogue” (BMC Chemical Biology, 2009).

Tests used:
Format in all cases: cell-based
HeLa T-Rex cells = test: Gamma-H2AX In-Cell Western assay (doxorubicin-induced DNA damage); conditions: 30 minutes pretreatment, then 1 μM doxorubicin for 2 hours; read-out: IC50, suppression of doxorubicin-induced γH2AX signal
Method: In-Cell Western analysis was carried out as follows. HeLa T-Rex cells were seeded at the cell density of 15 × 10^3 cells per well in black 96-well plates (Greiner Bio-one Vacuette, St Gallen, Switzerland). The day post-seeding, cells were pretreated with increasing concentrations of either ICRF-193, QAP 1 or vehicle (DMSO) for 30 minutes followed by a 2 hours treatment with 1 μM of doxorubicin, or were only treated with the same concentrations of ICRF-193, QAP 1 or vehicle (DMSO) for 2 hours. Treatments were done in triplicate. […] Finally, cells were washed 4 times with 50 μl per well of PBS containing 0.1% Tween-20 for 3 minutes, liquid was removed and plates were kept at 4°C until reading. γH2AX signals were read using the LI-COR Odyssey Infrared Imager with the Odyssey v1.1 software using the 800 nm channel. Blank values correspond to non-specific γH2AX signal detected in wells without primary antibody staining. […] The resulting values for each sample were normalized to the DNA quantity by measuring the corresponding TO-PRO-3 iodide signals. The TO-PRO-3 iodine signals were detected by using the 700 nm channel. The percentage of γH2AX signal was determined for each concentration of ICRF193 and QAP 1 with or without doxorubicin treatment by setting the value for the treatment with vehicle and 1 μM doxorubicin to 100%. […]

HL-60 cells [1] = test: Gamma-H2AX Western blot (doxorubicin-induced DNA damage); conditions: both drugs 5 μM, 30 minutes pretreatment, doxorubicin 2 hours
Method: Histone extracts of HL-60 or HeLa T-Rex cells for Western blot analysis were prepared as follows: Following treatments, medium was removed and cells were collected/washed with PBS. Cells were centrifuged for 5 minutes at 1500 rpm and 4°C and the cell pellet was resuspended in 300 μl of ice-cold hypotonic buffer (see above). Cells were transferred in a 1.5 ml Eppendorf tube and incubated for 15 minutes on ice. Thereafter, NP-40 was added to the cells to a final concentration of 0.6% (v/v) and cells were disrupted by pumping 10–15 times through a 1 ml syringe connected to a 23-gauge needle. The extract was centrifuged for 10 minutes at 8000 rpm and 4°C. The supernatant (cytoplasmic fraction) was removed and the nuclear pellet was washed once with 500 μl of ice-cold hypotonic buffer for 4 minutes at 8000 rpm. Nuclear proteins were extracted by addition of 22 μl sample buffer and boiling for 3 minutes. Samples were resolved by 15% SDS-PAGE following transfer to PVDF membrane. After blocking, membranes were incubated either with anti-γH2AX (clone JBW301, 05–636, Upstate, Charlottesville, VA, diluted 1:1000 in PBS containing 0.1% Tween 20 and 5% milk) or histone H3 (catalog number 9715, Cell Signaling Technologies Inc., Beverly, MA, diluted 1:1000 in TBS containing 0.1% Tween 20 and 5% milk) antibodies overnight at 4°C.

HL-60 cells [2] = test: Chromosome segregation assay (chromosome spreads)
Method: HL-60 cells were treated overnight for 16 hours with 2 μg/ml aphidicolin (Sigma-Aldrich corporation, St. Louis, MO) and released by washing twice PBS and resuspending into fresh medium. After 6 hours release the cells were treated with 1 mM caffeine (Lancaster Synthesis, Heysham, Lancashire, UK) and with catalytic topoisomerase II inhibitor or vehicle for 2 hours. Cells were washed once with PBS and incubated with 56 mM KCl hypotonic solution for 30 minutes. Cells were pelleted and carefully resuspended in Carnoy's fixative. Cells were pelleted as above, supernatant was removed and cells were resuspended again in 2 ml fixative. Chromosome spreads were prepared by dropping 50 μl cell suspension onto microscopy slides. The slides were allowed to dry and then stained for 10 seconds in Hoechst 33342 dye (Molecular Probes, Eugene, Oregon, prepared 1:1000 in PBS from 10 mg/ml stock). After drying, mounting media (Vectashield®, Vector Laboratories, Burlingame, CA) and a cover slip were added. Samples were observed using an immersion oil lens (100 ×, Nikon, Plan Apo VC) by fluorescence microscopy (Nikon Eclipse, E600) in the DAPI channel. Images were acquired using analySIS® software (Soft Imaging System GmbH, Münster, Germany). Representative images were converted to grayscale, inverted and contrast adjusted with Adobe Photoshop. Mitotic cells were categorized as described.

HL-60 cells [3] = test: Proliferation assay over 72 hours; conditions: read-out: half-maximal growth inhibitory concentration (GI50)
[4] = tested on: HCC1937 BRCA1 mutant and HCC1937 BRCA1 reconstituted cells; test: Clonogenic growth assay (WST-1, colony counting); conditions: continuous treatment for 9 days, WST-1 and colony numbers
Method: HCC1937 BRCA1 mutant and HCC1937 BRCA1 reconstituted breast ductal carcinoma cells were cultured in RPMI-1640 medium supplemented with 10% fetal calf serum, 2 mM L-glutamine, 1 mM sodium pyruvate, 4.5 g/l glucose and 1% (v/v) penicillin/streptomycin. Status of BRCA1 was corroborated by immunoprecipitation using 50 μg nuclear extracts and 1 μg mouse monoclonal antibody MS110 (ab16780, Abcam Inc., Cambridge, MA), which is directed towards the amino-terminus of the protein. Blots were probed with BRCA1 carboxy-terminal specific mouse monoclonal antibody D9 (sc-6954, Santa Cruz Biotechnologies, Santa Cruz, CA) and, following stripping, re-probed with antibody MS110. For assays, 5000 cells in 3 ml medium were seeded per well of 6 well plates in duplicates. The day after, vehicle (DMSO) or compounds were added. After one week medium was exchanged and vehicle or compounds were re-added for an additional two days. To assess proliferation the medium in each well was replaced with 1 ml medium containing 100 μl WST-1 reagent and incubation for 20 minutes at 37°C. Of each sample 110 μl supernatant were transferred into a 96 well plate and the OD was read at 450 nm (filter at 630 nm) on a SpectraMax Plus microtiter plate reader using SoftMax Pro software (Molecular Devices). For background correction, the blank value consisted of 100 μl medium containing 10 μl WST-1. Thereafter, colonies were stained by removing medium, washing cells once with PBS and incubation with 1 ml crystal violet solution for 30 minutes at room temperature. Cells were washed twice with PBS and colonies were counted using an Artec Counter (Model 880, Artec, Dyntatech Laboratories Inc.) with diameter cut-off set to 0.2 mm. Data were expressed as growth or colony numbers relative to vehicle control treatments (100%).

ICRF-193 [reference compound]
IC50 (HeLa T-Rex cells): ~200 nM | effect of pretreatment on doxorubicin-induced γH2AX (Western blot) (HL-60 cells [1]): suppressed | chromosome segregation at mitosis (HL-60 cells [2]; 400 nM with 1 mM caffeine for 2 hours after 6 hours release): anaphases looked abnormal | chromosome segregation at mitosis (HL-60 cells [2]; 1 μM with caffeine for 2 hours after 6 hours release from aphidicolin): no normal anaphases or telophases could be observed | GI50 (HL-60 cells [3]): 250 nM | sensitivity of BRCA1 mutant versus BRCA1 reconstituted HCC1937 cells [4]: somewhat more sensitive
